In patent US11325938B2, “CD73 inhibitors” (ORIC Pharmaceuticals, Inc., priority 2018, dated 2022):

These compounds were tested against CD73 (Homo sapiens (Human), UniProt P21589) (assay: Biochemical assay: inhibition of CD73 activity (AMP hydrolysis, Malachite Green readout)). Conditions: CD73 0.3208 nM, AMP 15 μM, 25 mM Tris-HCl pH 7.4, RT, absorbance 620 nm.
Sequence of CD73 (P21589 27-574): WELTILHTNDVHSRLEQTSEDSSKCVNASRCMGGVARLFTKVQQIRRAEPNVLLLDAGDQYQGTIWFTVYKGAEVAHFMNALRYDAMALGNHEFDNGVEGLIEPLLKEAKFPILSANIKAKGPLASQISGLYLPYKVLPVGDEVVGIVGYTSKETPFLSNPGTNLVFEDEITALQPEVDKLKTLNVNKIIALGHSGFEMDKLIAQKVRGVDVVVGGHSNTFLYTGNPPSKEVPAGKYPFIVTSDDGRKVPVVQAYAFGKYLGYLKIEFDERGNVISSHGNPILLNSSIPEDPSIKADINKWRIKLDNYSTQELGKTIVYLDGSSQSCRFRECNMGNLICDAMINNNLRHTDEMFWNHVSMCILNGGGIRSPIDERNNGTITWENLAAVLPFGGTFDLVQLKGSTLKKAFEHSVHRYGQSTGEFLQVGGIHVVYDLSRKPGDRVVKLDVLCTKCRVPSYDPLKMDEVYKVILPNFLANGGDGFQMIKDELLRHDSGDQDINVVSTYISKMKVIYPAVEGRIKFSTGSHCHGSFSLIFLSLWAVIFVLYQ
Outline: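 Human CD73 (320 pM final) preincubated 15 min at RT with compounds (10-point ½-log titration from 100 μM, duplicates) in 25 mM Tris-HCl pH 7.4, 5 mM MgCl2, 0.01% Brij-35, 0.01% BSA. 15 μM AMP added, 10 min at RT; released phosphate read by Malachite Green absorbance; IC50 determined.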
`O=P(O)(O)COC[C@H]1O[C@@H](n2nnc3c(NCc4cccc(Cl)c4)cc(Cl)nc32)[C@H](O)[C@@H]1O` [Example 22, ((((2R,3S,4R,5R)-5-(5-chloro-7-((3-chlorobenzyl)amino)-3H-[1,2,3]triazolo[4,5-b]pyridin-3-yl)-3,4-dihydroxytetrahydrofuran-2-yl)methoxy)methyl)phosphonic acid] showed an IC50 of at most 100 nM.
In the case of `O=P(O)(O)COC[C@H]1O[C@@H](n2nnc3c(NC4CCC4)cc(Cl)nc32)[C@H](O)[C@@H]1O` [Example 23, ((((2R,3S,4R,5R)-5-(5-chloro-7-(cyclobutylamino)-3H-[1,2,3]triazolo[4,5-b]pyridin-3-yl)-3,4-dihydroxytetrahydrofuran-2-yl)methoxy)methyl)phosphonic acid], the IC50 is reported as at most 100 nM.
`O=P(O)(O)COC[C@H]1O[C@@H](n2nnc3c(NCC4CCC4)cc(Cl)nc32)[C@H](O)[C@@H]1O` [Example 24, ((((2R,3S,4R,5R)-5-(5-chloro-7-((cyclobutylmethyl)amino)-3H-[1,2,3]triazolo[4,5-b]pyridin-3-yl)-3,4-dihydroxytetrahydrofuran-2-yl)methoxy)methyl)phosphonic acid] was tested, and the IC50 was at most 100 nM.
With `O=P(O)(O)CS(=O)(=O)C[C@H]1O[C@@H](n2nnc3c(NCC4CC4)cc(Cl)nc32)[C@H](O)[C@@H]1O` [Example 25, (((((2S,3S,4R,5R)-5-(5-chloro-7-((cyclopropylmethyl)amino)-3H-[1,2,3]triazolo[4,5-b]pyridin-3-yl)-3,4-dihydroxytetrahydrofuran-2-yl)methyl)sulfonyl)methyl)phosphonic acid] the IC50 was at most 100 nM.
`O=P(O)(O)COC[C@H]1O[C@@H](n2nnc3c(NCc4ccccc4Cl)cc(Cl)nc32)[C@H](O)[C@@H]1O` [Example 26, ((((2R,3S,4R,5R)-5-(5-chloro-7-((2-chlorobenzyl)amino)-3H-[1,2,3]triazolo[4,5-b]pyridin-3-yl)-3,4-dihydroxytetrahydrofuran-2-yl)methoxy)methyl)phosphonic acid] was tested, and the IC50 was at most 100 nM.
Compound `O=P(O)(O)CS(=O)(=O)C[C@H]1O[C@@H](n2nnc3c(NCc4ccccc4Cl)cc(Cl)nc32)[C@H](O)[C@@H]1O` [Example 27, (((((2S,3S,4R,5R)-5-(5-chloro-7-((2-chlorobenzyl)amino)-3H-[1,2,3]triazolo[4,5-b]pyridin-3-yl)-3,4-dihydroxytetrahydrofuran-2-yl)methyl)sulfonyl)methyl)phosphonic acid] has an IC50 of at most 100 nM.
`O=C(O)C(OC[C@H]1O[C@@H](n2ncc3c(NC4CCCC4)nc(Cl)nc32)[C@H](O)[C@@H]1O)P(=O)(O)O` (stereo partly drawn) [Example 28, 2-(((2R,3S,4R,5R)-5-(6-chloro-4-(cyclopentylamino)-1H-pyrazolo[3,4-d]pyrimidin-1-yl)-3,4-dihydroxytetrahydrofuran-2-yl)methoxy)-2-phosphonoacetic acid] showed an IC50 of at most 100 nM.
Work on `CNc1nc(Cl)nc2c1cnn2[C@@H]1O[C@H](COC(CO)P(=O)(O)O)[C@@H](O)[C@H]1O` (stereo partly drawn) [Example 29, (1-(((2R,3S,4R,5R)-5-(6-chloro-4-(methylamino)-1H-pyrazolo[3,4-d]pyrimidin-1-yl)-3,4-dihydroxytetrahydrofuran-2-yl)methoxy)-2-hydroxyethyl)phosphonic acid] yielded an IC50 of at most 100 nM.
In the case of `O=P(O)(O)C(CO)OC[C@H]1O[C@@H](n2ncc3c(NCC4CC4)nc(Cl)nc32)[C@H](O)[C@@H]1O` (stereo partly drawn) [Example 30, (1-(((2R,3S,4R,5R)-5-(6-chloro-4-((cyclopropylmethyl)amino)-1H-pyrazolo[3,4-d]pyrimidin-1-yl)-3,4-dihydroxytetrahydrofuran-2-yl)methoxy)-2-hydroxyethyl)phosphonic acid], the IC50 is reported as at most 100 nM.
Work on `COCC(OC[C@H]1O[C@@H](n2ncc3c(NC4CCCC4)nc(Cl)nc32)[C@H](O)[C@@H]1O)P(=O)(O)O` (stereo partly drawn) [Example 31, (1-(((2R,3S,4R,5R)-5-(6-chloro-4-(cyclopentylamino)-1H-pyrazolo[3,4-d]pyrimidin-1-yl)-3,4-dihydroxytetrahydrofuran-2-yl)methoxy)-2-methoxyethyl)phosphonic acid] yielded an IC50 of at most 100 nM.
Work on `C[C@@H](OC[C@H]1O[C@@H](n2ncc3c(NC4CCCC4)nc(Cl)nc32)[C@H](O)[C@@H]1O)P(=O)(O)O` [Example 32, ((S)-1-(((2R,3S,4R,5R)-5-(6-chloro-4-(cyclopentylamino)-1H-pyrazolo[3,4-d]pyrimidin-1-yl)-3,4-dihydroxytetrahydrofuran-2-yl)methoxy)ehtyl)phosphonic acid] yielded an IC50 of at most 100 nM.
Compound `C[C@H](OC[C@H]1O[C@@H](n2ncc3c(NC4CCCC4)nc(Cl)nc32)[C@H](O)[C@@H]1O)P(=O)(O)O` [Example 33, ((R)-1-(((2R,3S,4R,5R)-5-(6-chloro-4-(cyclopentylamino)-1H-pyrazolo[3,4-d]pyrimidin-1-yl)-3,4-dihydroxytetrahydrofuran-2-yl)methoxy)ethyl)phosphonic acid] has an IC50 of at most 100 nM.
For `O=P(O)(O)C(CCO)S(=O)(=O)C[C@H]1O[C@@H](n2ncc3c(NC4CCCC4)nc(Cl)nc32)[C@H](O)[C@@H]1O` (stereo partly drawn) [Example 34, (1-((((2S,3S,4R,5R)-5-(6-chloro-4-(cyclopentylamino)-1H-pyrazolo[3,4-d]pyrimidin-1-yl)-3,4-dihydroxytetrahydrofuran-2-yl)methyl)sulfonyl)-3-hydroxypropyl)phosphonic acid], the IC50 was 100 to 1000 nM.
`O=P(O)(O)C(OC[C@H]1O[C@@H](n2ncc3c(NC4CCCC4)nc(Cl)nc32)[C@H](O)[C@@H]1O)c1nnn[nH]1` (stereo partly drawn) [Example 35, ((((2R,3S,4R,5R)-5-(6-chloro-4-(cyclopentylamino)-1H-pyrazolo[3,4-d]pyrimidin-1-yl)-3,4-dihydroxytetrahydrofuran-2-yl)methoxy)(1H-tetrazol-5-yl)methyl)phosphonic acid] was tested, and the IC50 was at most 100 nM.
Compound `O=P(O)(O)C(CO)(CCO)OC[C@H]1O[C@@H](n2ncc3c(NC4CCCC4)nc(Cl)nc32)[C@H](O)[C@@H]1O` (stereo partly drawn) [Example 36, (2-(((2R,3S,4R,5R)-5-(6-chloro-4-(cyclopentylamino)-1H-pyrazolo[3,4-d]pyrimidin-1-yl)-3,4-dihydroxytetrahydrofuran-2-yl)methoxy)-1,4-dihydroxybutan-2-yl)phosphonic acid] has an IC50 of at most 100 nM.
`O=P(O)(O)C(CO)(CCO)OC[C@H]1O[C@@H](n2ncc3c(NC4CCCC4)nc(Br)nc32)[C@H](O)[C@@H]1O` (stereo partly drawn) [Example 37, (2-(((2R,3S,4R,5R)-5-(6-bromo-4-(cyclopentylamino)-1H-pyrazolo[3,4-d]pyrimidin-1-yl)-3,4-dihydroxytetrahydrofuran-2-yl)methoxy)-1,4-dihydrobutan-2-yl)phosphonic acid] gave an IC50 of at most 100 nM.
In the case of `CS(=O)(=O)C(OC[C@H]1O[C@@H](n2ncc3c(NC4CCCC4)nc(Cl)nc32)[C@H](O)[C@@H]1O)P(=O)(O)O` (stereo partly drawn) [Example 38, ((((2R,3S,4R,5R)-5-(6-chloro-4-(cyclopentylamino)-1H-pyrazolo[3,4-d]pyrimidin-1-yl)-3,4-dihydroxytetrahydrofuran-2-yl)methoxy)(methylsulfonyl)methyl)phosphonic acid], the IC50 is reported as 100 to 1000 nM.
`O=P(O)(O)C(CO)OC[C@H]1O[C@@H](n2ncc3c(N[C@H]4CCc5ccccc54)nc(Cl)nc32)[C@H](O)[C@@H]1O` (stereo partly drawn) [Example 39, (1-(((2R,3S,4R,5R)-5-(6-chloro-4-(((S)-2,3-dihydro-1H-inden-1-yl)amino)-1H-pyrazolo[3,4-d]pyrimidin-1-yl)-3,4-dihydroxytetrahydrofuran-2-yl)methoxy)-2-hydroxyethyl)phosphonic acid] was tested, and the IC50 was at most 100 nM.
Work on `O=P(O)(O)C(CO)OC[C@@H]1C[C@@H](O)[C@H](n2ncc3c(NC4CCCC4)nc(Cl)nc32)O1` (stereo partly drawn) [Example 40, (1-(((2S,4R,5R)-5-(6-chloro-4-(cyclopentylamino)-1H-pyrazolo[3,4-d]pyrimidin-1-yl)-4-hydroxytetrahydrofuran-2-yl)methoxy)-2-hydroxyethyl)phosphonic acid] yielded an IC50 of at most 100 nM.
Work on `O=C(c1ccccc1)C(OC[C@H]1O[C@@H](n2ncc3c(NC4CCCC4)nc(Cl)nc32)[C@H](O)[C@@H]1O)P(=O)(O)O` (stereo partly drawn) [Example 41, (1-(((2R,3S,4R,5R)-5-(6-chloro-4-(cyclopentylamino)-1H-pyrazolo[3,4-d]pyrimidin-1-yl)-3,4-dihydroxytetrahydrofuran-2-yl)methoxy)-2-oxo-2-phenylethyl)phosphonic acid] yielded an IC50 of 100 to 1000 nM.
For `CC(O)C(OC[C@H]1O[C@@H](n2ncc3c(NC4CCCC4)nc(Cl)nc32)[C@H](O)[C@@H]1O)P(=O)(O)O` (stereo partly drawn) [Example 42, (1-(((2R,3S,4R,5R)-5-(6-chloro-4-(cyclopentylamino)-1H-pyrazolo[3,4-d]pyrimidin-1-yl)-3,4-dihydroxytetrahydrofuran-2-yl)methoxy)-2-hydroxypropyl)phosphonic acid], the IC50 was at most 100 nM.
Work on `O=P(O)(O)CP(=O)(O)OC[C@H]1O[C@@H](n2nnc3c(NC4CCCC4)cc(Cl)nc32)[C@H](O)[C@@H]1O` [Example 53, (((((2R,3S,4R,5R)-5-(5-chloro-7-(cyclopentylamino)-3H-[1,2,3]triazolo[4,5-b]pyridin-3-yl)-3,4-dihydroxytetrahydrofuran-2-yl)methoxy)(hydroxy)phosphoryl)methyl)phosphonic acid] yielded an IC50 of at most 100 nM.
With `COP(=O)(CP(=O)(O)O)OC[C@H]1O[C@@H](n2nnc3c(NC4CCCC4)cc(Cl)nc32)[C@H](O)[C@@H]1O` (stereo partly drawn) [Example 54, (((((2R,3S,4R,5R)-5-(5-chloro-7-(cyclopentylamino)-3H-[1,2,3]triazolo[4,5-b]pyridin-3-yl)-3,4-dihydroxytetrahydrofuran-2-yl)methoxy)(methoxy)phosphoryl)methyl)phosphonic acid] the IC50 was at most 100 nM.
`CSCC(C)(OC[C@H]1O[C@@H](n2ncc3c(NC4CCCC4)nc(Cl)nc32)[C@H](O)[C@@H]1O)P(=O)(O)O` (stereo partly drawn) [Example 55, (2-(((2R,3S,4R,5R)-5-(6-Chloro-4-(cyclopentylamino)-1H-pyrazolo[3,4-d]pyrimidin-1-yl)-3,4-dihydroxytetrahydrofuran-2-yl)methoxy)-1-(methylthio)propan-2-yl)phosphonic acid] was tested, and the IC50 was at most 100 nM.
